The values that follow come from ChEMBL document CHEMBL4177522, “Effects of new fluorinated analogues of GABA, pregabalin bioisosters, on the ambient level and exocytotic release of [3H]GABA from rat brain nerve terminals” (Bioorg Med Chem, 2017).

Data set [1] in a line: Effect on ambient level of [3H]GABA in Wistar rat synaptosomes assessed as [3H]GABA level at 100 uM preincubated for 20 mins in presence of GAT1 specific blocker NO-711 (reference value: 25.07 +/- 2.1%). In kind it is ADME, subcellular, Synaptosome.
Data set [2] in a line: Induction of plasma membrane hyperpolarization in Wistar rat synaptosomes at 100 uM by rhodamine 6G based spectrofluorimeteric method. In kind it is subcellular, Synaptosome.
Data set [3] can be described thus: Effect on ambient level of L-[3H]glutamate in Wistar rat synaptosomes assessed as L-[3H]glutamate level at 100 uM preincubated for 20 mins (reference value: 24.68 +/- 1.49%). In kind it is ADME, subcellular, Synaptosome.
The nature of data set [4]: Induction of plasma membrane depolarization in Wistar rat synaptosomes at 100 uM by rhodamine 6G based spectrofluorimeteric method. In kind it is subcellular, Synaptosome.
The species named for another data set is Rattus norvegicus. In words: Decrease in KCl-induced exocytotic release of [3H]GABA in Wistar rat synaptosomes at 100 uM preincubated for 20 mins followed by Kcl addition in Ca2+ containing media measured after 5 mins. The data set is classed as functional, subcellular. Also on record: scale not given: the % may be the effect or the level left.
A short description of data set [5]: Effect on ambient level of [3H]GABA in Wistar rat synaptosomes assessed as [3H]GABA level at 100 uM preincubated for 20 mins (reference value: 14.20 +/- 1.03%). The data set is classed as ADME, subcellular, Synaptosome.

In the case of `NC[C@@](O)(CC(=O)O)C(F)(F)F`, the Activity is 27.9% in data set [1]; “Non-Toxic” in data set [2]; 22.72% in data set [3]; “Non-Toxic” in data set [4]; 35% in the data set filed under Rattus norvegicus; 15.55% in data set [5].
In the case of `NCC(CC(=O)O)C(F)(F)C(F)F` (racemic), the Activity in data set [1] is 26.6%; in data set [2], “Non-Toxic”; in data set [3] it was 25.29%; in data set [4], “Non-Toxic”; in the data set listed under Rattus norvegicus, 33%; in data set [5], 14.63%.
`NC[C@@H](CC(=O)O)C(F)(F)F`: the Activity was 24.86% in data set [1]; “Non-Toxic” in data set [2]; 24.75% in data set [3]; “Non-Toxic” in data set [4]; 26% in the data set listed under Rattus norvegicus; 13.35% in data set [5].
As to `CC(C)C[C@H](CN)CC(=O)O` [PREGABALIN], the Activity in data set [1] is 24.34%; in data set [2], “Non-Toxic”; in data set [3], 26.2%; in data set [4], “Non-Toxic”; in the data set listed under Rattus norvegicus, 15%; in data set [5], 14.1%.
